Earlier results on one compound are cited in patent publication US11946086B2, “Gene involved in synthesis of cyclic peptide compound, method for producing cyclic peptide compound using the same, and transformant comprising the same” (NATIONAL INSTITUTE OF ADVANCED INDUSTRIAL SCIENCE AND …, priority 2017, dated 2024).

Non-standard residues stand in square brackets, D forms with d. Residues, ends and D or L forms follow the SMILES beside them. NMeI = CC[CH](C)[CH](NC)C(=O)O; NMeD = CN[CH](CC(=O)O)C(=O)O; NMeV = CN[CH](C(=O)O)C(C)C; Pip = O=C(O)[CH]1CCCCN1; Lac = C[CH](O)C(=O)O

For the data set, the system named is plant pathogenic bacteria, and, in particular, fungi. To be noted: against plant pathogenic bacteria.

As for `CCC(C)C1C(=O)NCC(=O)N(C)C(C(C)C)C(=O)NC(Cc2ccc(OC)cc2)C(=O)OC(C)C(=O)N2CCCCC2C(=O)N(C)C(C(C)C)C(=O)NC(C(C)C)C(=O)N(C)C(CC(=O)O)C(=O)N(C)C(C(C)C)C(=O)N1C` (stereo not shown) [KK-1, Tyrosine, N-[N-[N-[N-[N-[N-[N-[N-[[1-(2-hydroxy-1-oxopropyl)-2-piperidinyl]carbonyl]-N-methylvalyl]valyl]-N-methyl-a-aspartyl]-N-methylvalyl]-N-methylisoleucyl]glycyl]-N-methylvalyl]-O-methyl-, d2-lactone (9CI)] (cyclo(G[NMeV]Y(Me)[Lac][Pip][NMeV]V[NMeD][NMeV][NMeI]); configuration not given here), the bactericidal activity result is given as “potent bactericidal activity”.
